Test system: T1, TaAPY3-1
T1 construct: pET22a, E. coli BL21; genome set A copy
Assay: phosphate release (Phosphate Assay Kit)
Assay type: biochemical, Triticum aestivum
Settings: 37 °C, pH 5.5, 8 mM Ca2+

Km: 8.7 mM
SMILES: Nc1ncnc2c1ncn2[C@@H]1O[C@H](COP(=O)(O)OP(=O)(O)OP(=O)(O)O)[C@@H](O)[C@H]1O [ATP]
